Data set [1] has as its system NA. The settings on record: cited from earlier work.
Source text: (§1) To determine the mode of action of the NA-inhibitory peptide, a Lineweaver–Burk kinetic model was used to explore the relationship between the reaction rate and the substrate concentration.
In data set [2] the test system is NA. As to conditions: no reference given; cited from earlier work.
Source text: as §1
For data set [3], the target named is T1, Influenza virus H1N1 neuraminidase (NA) (Influenza A virus, UniProt P03468). Type of data set: biochemical. As to conditions: relative to hydrolysates (<5000 Da), from the IC50 values.
Data set [4] deals with T1, Influenza virus H1N1 neuraminidase (NA). In words: NA inhibition mode, Lineweaver–Burk kinetics. Type of data set: biochemical. As to conditions: Lineweaver–Burk plot. The procedure:
The mode of NA inhibition was determined according to the previous method with slight modifications. Various concentrations of MUNANA (1.25, 2.5, 5, 10 and 20 μM) were incubated with NA in the absence or presence (0–2.5 mg/mL) of the peptide P at 37 °C. The inhibition kinetics of NA in the presence of peptide P was determined based on the Lineweaver–Burk plot. The inhibitor constant Ki was calculated by plotting 1/Vmax versus the concentrations of peptide P.

Data set [5] relates to MDCK cells. Put plainly: Cytotoxicity test by MTT assay. As to conditions: 48 h. Type of data set: cell-based, canine. The procedure: The MTT assay was used to determine the effect of the peptide on the viability of MDCK cells. The 96-well plates were used to culture the MDCK cells. After adding 10 μL of PBS containing MTT (0.5 mg/mL) into each well, the solution was incubated at 37 °C for 4 h. After removing the supernatant, 200 μL of DMSO was added into each well. The optical density (OD) for each well was determined at 570 nm. The IC50 was calculated as the concentration of the sample at which the number of viable cells was decreased to 50% of that in the cell control.

The test system of data set [6] is influenza virus H1N1 (HA titer, chicken red blood cells). On the set-up: species or system influenza A H1N1 virus.
For data set [7], the system named is pepsin, chymotrypsin, trypsin. Put plainly: Simulated in vitro gastrointestinal digestion, NA inhibition read-out. Type of data set: in vitro ADME. The settings on record: 10 mg/mL, pepsin pH 2.0, 37 °C, 2 h, then chymotrypsin pH 7.5, 37 °C, 1 h, three replicates. The procedure: Simulated digestion assay was performed according to the previous method with slight modifications. The NA-inhibitory peptide was dissolved in deionized water to prepare 10 mg/mL solution. The pH was adjusted to 2.0 with 1 mol/L HCl and then pepsin (2.86% of the substrate, dry basis) was added. Digestion was performed at 37 °C for 2 h, followed by boiling for 10 min to stop the enzyme activation. Subsequently, the pH was adjusted to 7.5 with 0.2 mol/L NaOH. After adding chymotrypsin (4.00% of substrate, dry basis), the reaction was carried out at 37 °C for 1 h. The sample was submerged in a 95 °C water bath for 10 min to terminate the enzymatic digestion and cooled on ice to room temperature. Then, trypsin (4.00% of substrate, dry basis) was added, and the above steps were repeated. Afterwards, the digested mixtures were centrifuged at 10,000× g for 10 min to obtain the digestive juices. The NA inhibition assay in digestive juices was detected as described above.

Data set [8] deals with influenza virus A/Puerto Rico/8/1934 (H1N1) in MDCK cells.
The test system is the same in data set [9]. The source holds these as a separate data set.
Data set [10] relates to ACE. As to conditions: cited from earlier work.
Where [11] appears, read: influenza virus A/Puerto Rico/8/1934 in MDCK cells, 1 h, 250 μg/mL.

≈ marks a conversion by molar mass, not a printed value. Where two headings read alike, the source gives them in different places. Non-standard residues stand in square brackets, D forms with d. Residues, ends and D or L forms follow the SMILES beside them. Hyp = O=C(O)[C@@H]1C[C@@H](O)CN1

T1 sequence (P03468 whole entry, looked up): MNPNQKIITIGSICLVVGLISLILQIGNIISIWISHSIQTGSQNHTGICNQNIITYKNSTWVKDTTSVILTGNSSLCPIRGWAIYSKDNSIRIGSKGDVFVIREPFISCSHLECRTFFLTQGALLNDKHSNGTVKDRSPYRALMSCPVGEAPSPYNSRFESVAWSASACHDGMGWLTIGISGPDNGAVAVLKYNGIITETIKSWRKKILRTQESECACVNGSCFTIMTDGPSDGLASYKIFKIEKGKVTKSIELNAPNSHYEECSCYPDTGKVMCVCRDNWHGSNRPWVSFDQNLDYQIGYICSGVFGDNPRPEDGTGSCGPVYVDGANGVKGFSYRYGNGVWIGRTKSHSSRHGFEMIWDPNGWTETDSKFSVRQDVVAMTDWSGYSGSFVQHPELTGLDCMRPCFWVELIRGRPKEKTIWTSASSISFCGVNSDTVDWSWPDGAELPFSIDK

For orientation: IC50 means the concentration at which inhibition is half-maximal. Broadly, the Ki is the equilibrium dissociation constant of an inhibitor or competing ligand from its target. In the case of “2-hydroxy-3-methyl-3-butenyl alkyl [HMB]”, the “Mode of NA inhibition” value in [1] was “non-competitive”. The IC50 in data set [1] (read-out: IC50 for NA) is 12.3 µM. The inhibitory constant (Ki) in [1] (read-out: Ki for NA) is 14 ± 1.5 µM.

On to `CCOC(=O)C1=C[C@@H](OC(CC)CC)[C@H](NC(C)=O)[C@@H](N)C1` [oseltamivir], for which the “Mode of NA inhibition” value in [2] was “competitive”.

As for `CC(C)C[C@H](NC(=O)CNC(=O)[C@H](CCC(N)=O)NC(=O)[C@@H]1CCCN1C(=O)CNC(=O)[C@@H]1C[C@@H](O)CN1C(=O)[C@@H](NC(=O)CNC(=O)[C@@H]1C[C@@H](O)CN1C(=O)[C@@H]1CCCN1C(=O)CNC(=O)[C@H](C)NC(=O)[C@@H](NC(=O)CNC(=O)[C@H](C)NC(=O)[C@H](CCC(=O)O)NC(=O)CNC(=O)[C@H](CO)NC(=O)[C@@H]1CCCN1C(=O)CNC(=O)[C@H](CCCCN)NC(=O)[C@H](CCC(=O)O)NC(=O)CNC(=O)[C@@H]1C[C@@H](O)CN1)[C@@H](C)O)[C@@H](C)O)C(=O)O` [peptide P] (H-[Hyp]GEKGPSGEAGTAGP[Hyp]GT[Hyp]GPQGL-OH; N-terminus and C-terminus assumed), the “Purification Fold” value in [3] was determined as 7.19. Besides, the “Mode of NA inhibition” value in [4] is on record as “competitive”. The “Cytotoxicity in MDCK cells” value in data set [5] (concentration of 250 μg/mL or less (p > 0.05)) is recorded as “no significant cytotoxicity”. Moreover, the “Viability of MDCK cells” value in data set [5] (concentrations over 250 μg/mL (p < 0.05)) was “significantly reduced the viability”. In addition, the “HA titer of the virus” value in [6] was “significantly reduce the virus titer”. Moreover, the “NA-inhibitory activity after simulated in vitro gastrointestinal digestion” value in data set [7] was “significantly decreased”; in [7] (listed as NA-inhibitory peptide) it was “almost inactivated”. Also, the “Effect on cytopathic effect (CPE)” value in [8] is recorded as “significantly reduced the cytopathic effect”. Moreover, the “EC50 against H1N1” value in data set [8] (influenza virus A/Puerto Rico/8/1934 in MDCK cells, 48 h) came out at 471 ± 12 µg/mL (≈ 218 µM). Further, the “Inhibition of H1N1” value in data set [8] (influenza virus A/Puerto Rico/8/1934 in MDCK cells, 48 h, 250 μg/mL) amounted to 42%. The “Inhibition rate, added after the infection (after-adsorption)” value in data set [9] is listed as “approximately 31.5%”. Also, the “Inhibition ratio, during viral adsorption” value in data set [9] (setting [11]) turned out to be 58%. Besides, the “Inhibition ratio, pretreatment (added before viral adsorption)” value in data set [9] (setting [11]) is on record as 73%.

As for `NC(=O)c1ncn([C@@H]2O[C@H](CO)[C@@H](O)[C@H]2O)n1` [ribavirin, Ribavirin, reference compound], the “Inhibition ratio, positive control” value in data set [9] (positive control in the time-of-addition experiment) was 75%.

As for Trp-Leu, the “ACE inhibitory activity after simulated digestion” value in data set [10] was “completely preserved”.

These data come from paper PMC6213599 (Marine Drugs, 2018).
